# Measured values reported in patent US20260042764A1, “COMPOSITIONS AND METHODS FOR INHIBITION OF KRAS” (TheRas, Inc., priority 2022, published 2026).
# What was measured:
# H1573 cells (KRAS G12A) [1] = assay: Cell-based pERK HTRF assay in H1573 cells (Biological Example 5); conditions: Homo sapiens, NCI-H1573
# Description: (§1) Biological Example 5: Cell-based PERK HTRF assay in AsPC-1, SW1900, HPAC, Capan-2, RKN, H358, HCT116, KP-2, H1573, A549, MKN1, and HT1080 cells
# (§2) The inhibition of ERK phosphorylation, as measured using the HTRF Advanced Phospho-ERK 1/2 (Thr202/Tyr204) Detection Assay kit (Perkin Elmer), was used to determine the effectiveness of test compounds in disrupting KRAS-driven protein/effector signaling in cells.
# (§3) On day 1, cells were seeded into 96-well plates at 2.5×10^4 cells/well in 100 μL of complete growth media supplemented with 10% fetal bovine serum (FBS) and incubated at 37° C., in the presence of 5% CO2.
# (§4) On day 2, cells were treated with compounds diluted in DMSO at 0.25% final DMSO concentration. Compounds were dosed in a 9-point concentration curve with three-fold dilution between concentrations. Cells were incubated in the presence of compound for two hours at 37° C. Following this treatment period, cells were harvested by aspirating the media, adding 40 μL of kit-supplied 1x lysis buffer per well, and shaking for 30 minutes at 250 rpm at room temperature.
# (§5) Following cell lysis, samples were homogenized by pipetting up and down twenty times and 16 μL of cell lysate per well was transferred from the 96-well cell culture plate to two wells of a 384-well detection plate. A complete detection buffer was prepared by diluting D2 and Eu Cryptate antibodies 1:20 in kit-provided detection solution, 4 μL of complete detection buffer was then added to each well with lysate. Plates were incubated with gentle rocking for 24 hours at 4° C.
# (§6) Following this incubation period, plates were centrifuged at 500×g for one minute and analyzed on a CLARIOstar plate reader. Data was imported into Microsoft Excel and the signal from the 665 nm channel was divided by the signal from the 620 nm channel. % pERK was calculated as: […]
# (§7) Data was imported to the Prism software package (Graphpad) and EC50 values were calculated using the log (inhibitor) vs, response—variable slopc (Four parameters) model.
# [2] = tested on: Capan-2 cells (KRAS G12V); assay: Cell-based pERK HTRF assay in Capan-2 cells (Biological Example 5); conditions: Homo sapiens, Capan-2, Capan-2 (KRAS G12V) cells
# Description: as §1, §2, §3, §4, §5, §6, §7
# A549 cells (KRAS G12S) [3] = assay: Cell-based pERK HTRF assay in A549 cells (Biological Example 5); conditions: Homo sapiens
# Description: as §1, §2, §3, §4, §5, §6, §7
# HCT116 cells (KRAS G13D) [4] = assay: 3D Cell viability assay in HCT116 cells (Biological Example 6); type: cell-based; conditions: Homo sapiens, HCT-116; HCT116 (KRAS G13D) spheroids, 72 hours
# Outline: (§8)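 Tumour spheroids, grown 48 h from 1000 seeded cells in ultra-low attachment wells, receive compound at nine three-fold-spaced concentrations (final DMSO 0.25%) for 72 h at 37 °C, 5% CO2. Viability is measured by luminescence after CTG 3D lysis.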
# KP-2 cells (KRAS G12R) = assay: Cell-based pERK HTRF assay in KP-2 cells (Biological Example 5); conditions: KP-2 (KRAS G12R) cells
# Description: as §1, §2, §3, §4, §5, §6, §7
# SW1900 cells (KRAS G12D) [5] = assay: 3D Cell viability assay in SW1900 cells (Biological Example 6); type: cell-based; conditions: Homo sapiens; SW1990 (text: SW1900, KRAS G12D) spheroids, 72 hours
# Outline: as §8
# SW1900 cells (KRAS G12D) [6] = assay: Cell-based pERK HTRF assay in SW1900 cells (Biological Example 5); conditions: Homo sapiens, SW1990, SW1990 cells (text: SW1900, KRAS G12D)
# Description: as §1, §2, §3, §4, §5, §6, §7
# H1573 cells (KRAS G12A) [7] = assay: 3D Cell viability assay in H1573 cells (Biological Example 6); type: cell-based; conditions: Homo sapiens, NCI-H1573; H1573 (KRAS G12A) spheroids, 72 hours
# Description: (§9) Biological Example 6: 3D Cell viability assay in AsPC-1, SW1900, HPAC, Capan-2, RKN, H358, HCT116, KP-2, H1573, A549, MKN1, and HT1080 cells
# (§10) The inhibition of cellular viability as a result of test compound treatment in a spheroid assay was measured using the CellTiter-Glow 3D Cell Viability Assay (Promega).
# (§11) On Day 1, 1000 cells per well were seeded in 150 μL of complete growth media supplemented with 10% fetal bovine serum (FBS) and incubated at 37° C., in the presence of 5% CO2 in 96-well ultra-low attachment microplates (Corning) for 48 hours undisturbed to allow spheroids to form.
# (§12) Following spheroid formation, cells were treated with compounds diluted in DMSO at 0.25% final DMSO concentration. Compounds were dosed in a 9-point concentration curve with three-fold dilution between concentrations. Cells were incubated in the presence of compound for 72 hours at 37° C., in the presence of 5% CO2.
# (§13) Following this incubation period, the kit-provided CTG reagent was allowed to equilibrate for 30 minutes at room temperature, 150 μL of equilibrated CTG reagent was added to each well, and the plate was sealed before shaking at 250 rpm for 10 minutes at room temperature to lyse the cells, 150 μL of lysate per well was transferred to a 96-well plate and luminescence was read on a CLARIOstar plate reader.
# (§14) Data was imported into the Prism software package (Graphpad) and EC50 values were calculated using the log (inhibitor) vs, response—variable slope (Four parameters) model.
# RKN cells (KRAS G12V) = assay: 3D Cell viability assay in RKN cells (Biological Example 6); type: cell-based; conditions: RKN (KRAS G12V) spheroids, 72 hours
# Description: as §9, §10, §11, §12, §13, §14
# A549 cells (KRAS G12S) [8] = assay: 3D Cell viability assay in A549 cells (Biological Example 6); type: cell-based; conditions: Homo sapiens; A549 (KRAS G12S) spheroids, 72 hours
# Description: as §9, §10, §11, §12, §13, §14
# HPAC cells (KRAS G12D) = assay: Cell-based pERK HTRF assay in HPAC cells (Biological Example 5); conditions: Homo sapiens, HPAC
# Description: as §1, §2, §3, §4, §5, §6, §7
# HCT116 cells (KRAS G13D) [9] = assay: Cell-based pERK HTRF assay in HCT116 cells (Biological Example 5); conditions: Homo sapiens, HCT-116
# Description: as §1, §2, §3, §4, §5, §6, §7
# [10] = tested on: MKN1 cells (KRAS amplification); assay: Cell-based pERK HTRF assay in MKN1 cells (Biological Example 5); conditions: Homo sapiens, MKN-1, MKN cells (MKN1, KRAS amplification)
# Description: as §1, §2, §3, §4, §5, §6, §7
# AsPC-1 cells (KRAS G12D) = assay: Cell-based pERK HTRF assay in AsPC-1 cells (Biological Example 5); conditions: Homo sapiens, ASPC1, AsPC-1 (KRAS G12D) cells
# Description: as §1, §2, §3, §4, §5, §6, §7
# HT1080 cells (NRAS) [11] = assay: Cell-based pERK HTRF assay in HT1080 cells (Biological Example 5); conditions: Homo sapiens, HT-1080
# Description: as §1, §2, §3, §4, §5, §6, §7
# HT1080 cells (NRAS) [12] = assay: 3D Cell viability assay in HT1080 cells (Biological Example 6); type: cell-based; conditions: Homo sapiens, HT-1080; HT1080 (NRAS) spheroids, 72 hours
# Outline: as §8
# [13] = tested on: Capan-2 cells (KRAS G12V); assay: 3D Cell viability assay in Capan-2 cells (Biological Example 6); type: cell-based; conditions: Homo sapiens; Capan-2 (KRAS G12V) spheroids, 72 hours
# Description: as §9, §10, §11, §12, §13, §14
# [14] = tested on: MKN1 cells (KRAS amplification); assay: 3D Cell viability assay in MKN1 cells (Biological Example 6); type: cell-based; conditions: Homo sapiens, MKN-1; MKN (MKN1, KRAS amplification) spheroids, 72 hours
# Description: as §9, §10, §11, §12, §13, §14
IC50 (H1573 cells (KRAS G12A) [1]) [µM],IC50 [2] [µM],IC50 (A549 cells (KRAS G12S) [3]) [µM],IC50 (HCT116 cells (KRAS G13D) [4]) [µM],IC50 (KP-2 cells (KRAS G12R)) [µM],IC50 (SW1900 cells (KRAS G12D) [5]) [µM],IC50 (SW1900 cells (KRAS G12D) [6]) [µM],IC50 (H1573 cells (KRAS G12A) [7]) [µM],IC50 (A549 cells (KRAS G12S) [8]) [µM],IC50 (HPAC cells (KRAS G12D)) [µM],IC50 (HCT116 cells (KRAS G13D) [9]) [µM],IC50 [10] [µM],IC50 (AsPC-1 cells (KRAS G12D)) [µM],IC50 (HT1080 cells (NRAS) [11]) [µM],IC50 (HT1080 cells (NRAS) [12]) [µM],IC50 [14] [µM],Structure (SMILES),IC50 (RKN cells (KRAS G12V)) [µM],IC50 [13] [µM]
0.1 to 1,0.1 to 1,0.1 to 1,> 1,0.1 to 1,≤ 0.1,≤ 0.1,> 1,0.1 to 1,≤ 0.1,≤ 0.1,≤ 0.1,> 1,> 1,> 1,≤ 0.1,C[C@@H]1[C@H](N(C)c2nc(OC[C@@]34CCCN3C[C@H](F)C4)nc3c(F)c(-c4ccc(F)c5sc(N)c(C#N)c45)c(C(F)(F)F)cc23)CC(=O)N1C [Compound 440],≤ 0.1,0.1 to 1
≤ 0.1,≤ 0.1,≤ 0.1,≤ 0.1,≤ 0.1,,≤ 0.1,≤ 0.1,≤ 0.1,≤ 0.1,≤ 0.1,≤ 0.1,,> 1,> 1,≤ 0.1,"CC(=O)N1CC[C@@H](N(C)c2nc(OC[C@@]34CCCN3C[C@H](F)C4)nc3c(F)c(-c4ccc(F)c5sc(N)c(C#N)c45)c(C(F)(F)F)cc23)[C@H]1C (single isomer, unassigned) [Compound 193]",,≤ 0.1
0.1 to 1,0.1 to 1,0.1 to 1,0.1 to 1,0.1 to 1,≤ 0.1,≤ 0.1,0.1 to 1,0.1 to 1,≤ 0.1,≤ 0.1,≤ 0.1,> 1,> 1,> 1,≤ 0.1,N#Cc1cnn2c1CN(c1nc(OC[C@@]34CCCN3C[C@H](F)C4)nc3c(F)c(-c4ccc(F)c5sc(N)c(C#N)c45)c(C(F)(F)F)cc13)CC2 [Compound 392],≤ 0.1,0.1 to 1
0.1 to 1,≤ 0.1,0.1 to 1,0.1 to 1,0.1 to 1,≤ 0.1,≤ 0.1,0.1 to 1,0.1 to 1,≤ 0.1,≤ 0.1,≤ 0.1,0.1 to 1,> 1,> 1,≤ 0.1,CCC(=O)N1C[C@@H](N(CC)c2nc(OC[C@@]34CCCN3C[C@H](F)C4)nc3c(F)c(-c4ccc(F)c5sc(N)c(C#N)c45)c(C(F)(F)F)cc23)C[C@H]1C [Compound 442],≤ 0.1,≤ 0.1
